Data published in patent US20220339135A1, “COMPOSITIONS AND METHODS FOR MODULATING AN INFLAMMATORY RESPONSE” (Enzychem Lifesciences Corporation, priority 2019, published 2022).
Entries after “also recorded” stand apart in the source; their conditions may differ.

How the values were obtained:
[1] = system: PAK in LPL or GPIHBP-1 silenced cells; test: In vitro phagocytosis assay in LPL or GPIHBP-1 silenced cells; assay type: cell-based; details: 1 h after infection
Protocol: For immunofluorescence-based measurement of phagocytosis and clearance, BMDMs were grown on glass coverslips in 24-well plates. The cells were infected with PAK (MOI, 50) for different time intervals and then were treated with 10 μg/ml gentamycin for 30 minutes to remove extracellular PAK attached to the cell surface. The infected cells were washed with ice-cold PBS several times, followed by fixing for 10 minutes at room temperature in methanol or 10% paraformaldehyde. The cells were stained with anti-Pseudomonas antibody (Abcam) and then were incubated with goat anti-rabbit IgG secondary antibody conjugated with Alexa Fluor 488. […]
For measurement of phagocytosis by flow cytometry, PAK was heat-killed and stained with 10 μM of SYTO9 (Thermo Scientific™) at room temperature for 30 minutes and then was extensively washed with ice-cold PBS several times. The staining dose of PAK was determined by flow cytometry. […] The fluorescence of extracellular PAK attached to the cell surface was quenched by replacing the medium with PBS containing 0.2% trypan blue.
For CFU counting-based phagocytosis and bacterial killing assay, PAK was cultured at 37° C. overnight with continuous shaking and was resuspended in PBS. […] The diluted aliquots were spread on LB agar plates, and CFU was counted after incubation of the plates overnight at 37° C.

[2] = system: NET formation of neutrophil, bone marrow-derived cells; test: NETosis of PAK-introduced bone marrow-derived cells; assay type: cell-based; details: PAK/PLAG vs PAK
Protocol: 2 hours after PAK infection, bone marrow-derived cells were harvested and detected extracellular DNA-elastase complex by using ELISA and visualized by using confocal microscopy (×400) or scanning electron microscope (SEM) (×8000). […] cells were washed with PBS and mounted in DAPI-containing fluorescence microscopy mounting medium (Invitrogen). Samples were analyzed with a laser scanning confocal microscope (Carl Zeiss, Oberkochen, Germany).

[3] = system: citrullinated histone H3 in dHL-60 cells; test: Histone H3 citrullination, western blot; assay type: cell-based, human; details: time-dependent
Protocol: (§1) dHL-60 cells were lysed on ice for 30 minutes in RIPA buffer composed of 50 mM Tris-HCl (pH 7.4), 150 mM NaCl, 2 mM EDTA, 1% NP-40, 0.5% sodium deoxycholate, 0.1% SDS, 1 mM phenylmethylsulfonyl fluoride (PMSF), 10 mM sodium fluoride, 2 mM sodium pyrophosphate, 10 mM β-glycerophosphate, 10 mM sodium orthovanadate. The lysates were centrifuged at 13,000 rpm for 20 minutes at 4° C. and protein concentrations were determined using the Bradford assay (Bio-Rad Laboratories). Denatured samples were mixed with a 5×SDS-PAGE loading buffer and heated to 100° C. for 15 min. The samples were separated on the 10% of SDS-PAGE gel and transferred to polyvinylidene difluoride (PVDF) membranes (Merck Millipore Corporation, MA, USA). Membranes were blocked with 5% non-fat milk in PBS (10 mM Tris-HCl, pH7.5, 150 mM NaCl) for 1 h and probed with primary antibodies against histone H3 (citrulline R2+R8+R17) from abcam (USA) and β-actin from cell signaling (USA) for overnight at 4° C. The blots were washed and incubated with appropriate secondary antibodies and visualized using Pierce™ ECL Western Blotting Substrate (Thermo Scientific).

CXCL8 in THP-1 cells = test: MSU crystal-induced CXCL8 in CD36 silenced THP-1 cells, ELISA; assay type: cell-based, human; details: PLAG 10, 100 μg/ml
Protocol: The specific siRNA of CD36 (sc-29995) and control siRNA (sc-37007) were purchased from Santa Cruz Biotechnology. Cells were transfected with 50 nM of either the targeting or control siRNA using HiPerFect Transfection Reagent (Qiagen, Hilden, Germany) for 24 h. The knockdown efficiency of siRNAs was confirmed by Western blot analysis.
Transfected THP-1 cells were pre-incubated with PLAG (10, 100 μg/ml) for 1 hour and then stimulated with MSU crystal (400 μg/ml). After 24 hours, cells were centrifuged, and the supernatant was harvested. The concentrations of CXCL8 in the supernatant of THP-1 cells were measured using Human CXCL8 ELISA kit (BD bioscience, New Jersey, USA) according to the manufacturer's instructions. The cytokine levels were estimated by interpolation from a standard curve using an ELISA reader (Molecular Devices, Sunnyvale, USA) at 450 nm.

[4] = system: ERK, p38 MAPK, JNK in THP-1 cells; test: Gemcitabine-induced phosphorylation of ERK, p38 MAPK, JNK, western blot; assay type: cell-based, human
Protocol: as §1, with “Total” for “dHL-60”, “orthovanadate. Membrane-and-cytoplasmic protein fractions of cultured cells were obtained with Mem-PER Plus Membrane Protein Extraction Kit (Thermo Scientific, MA, USA) according to the manufacturer's instructions.” for “orthovanadate.”, “ERK1/2, phospho-ERK1/2, P38, phospho-P38, SAPK/JNK, phospho-SAPK/JNK, Na, K-ATPase, α-Tubulin,” for “histone H3 (citrulline R2+R8+R17) from abcam (USA)”, “Cell Signaling Technology (MA, USA), Rac1 from Merck Millipore Corporation), p47phox and phospho-p47phox from Invitrogen, adenosine receptor A1 from Abcam, β arrestin-1 from Santa Cruz Technology” for “cell signaling (USA)”, “Pierce” for “Pierce™”

[5] = system: gemcitabine-induced neutropenia; details: cited from earlier work

SMILES: CCCCC/C=C\C/C=C\CCCCCCCC(=O)OC(COC(C)=O)COC(=O)CCCCCCCCCCCCCCC (racemic) [PLAG, 1-palmitoyl-2-linoleoyl-3-acetylglycerol]
- PLAG effect on enhanced bacterial phagocytosis in silenced cells [1]: enhances neither phagocytosis nor bacterial killing; also recorded: abrogated
- NET formation of neutrophil [2]: accelerated
- histone H3 citrullination [3]: induced
- decrease of CXCL8 induced by MSU crystal (CXCL8 in THP-1 cells): still shown
- gemcitabine-induced phosphorylation of ERK and p38 MAPK [4]: dose-dependently decreased
- gemcitabine-induced phosphorylation of JNK [4]: did not
- gemcitabine-induced neutropenia ([5]; Jeong et al., 2019): attenu¬ated the neutropenia
- anti-cancer effect of gemcitabine ([5]; athymic nude mice implanted with a human myeloma cell line): did not interfere
